According to paper PMC4982760, “Small-molecule inhibitors identify the RAD52-ssDNA interaction as critical for recovery from replication stress and for survival of BRCA2 deficient cells” (eLife, 2016):
Each block holds one molecule with its values, some of them ahead of it.

Tests used:
RAD52 [1] = tested on: RAD52; design: method as in Chandramouly et al., 2015; conditions: ref Chandramouly et al., 2015; cited from earlier work
RAD52 [2] = biological target: T1, RAD52 (Homo sapiens, UniProt P43351); test: WaterLOGSY NMR binding to RAD52; conditions: 20-40 μM compound, 3.3 μM RAD52
T1 construct: made in house
T1 sequence (P43351 1-418): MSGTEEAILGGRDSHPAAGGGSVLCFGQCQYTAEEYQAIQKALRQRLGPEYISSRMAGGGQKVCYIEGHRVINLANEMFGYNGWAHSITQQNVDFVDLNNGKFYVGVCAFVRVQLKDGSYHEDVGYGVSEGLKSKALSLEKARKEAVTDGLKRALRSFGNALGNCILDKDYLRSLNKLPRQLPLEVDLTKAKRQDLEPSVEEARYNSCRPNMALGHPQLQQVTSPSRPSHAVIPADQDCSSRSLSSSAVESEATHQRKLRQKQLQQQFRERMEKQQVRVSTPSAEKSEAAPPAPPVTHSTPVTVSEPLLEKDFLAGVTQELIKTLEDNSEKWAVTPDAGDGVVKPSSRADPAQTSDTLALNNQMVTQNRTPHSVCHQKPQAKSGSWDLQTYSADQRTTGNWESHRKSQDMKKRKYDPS
From the text: (§1) To confirm that the selected compounds bind RAD52, we employed water-ligand observation with gradient spectroscopy (WaterLOGSY), an NMR technique, which is based on transfer of magnetization from bulk water to the protein-bound compound of interest ([Dalvit et al., 2001], [2000]). In WaterLOGSY spectrum, if a compound binds to a protein, the compound will receive negative nuclear Overhauser effects (NOEs) due to the slow tumbling of the protein-compound complex, leading to a positive WaterLOGSY peak. […] Similarly, the binding of ‘6’to RAD52 is evident from the positive WaterLOGSY peaks that are clearly detected for this compound (Figure 3a).
(§2) Compound binding to RAD52 and RPA proteins was analyzed using water-ligand observation with gradient spectroscopy (WaterLOGSY) NMR experiments ([Dalvit et al., 2001], [2000]). The WaterLOGSY spectra of compounds in the presence of RAD52 or RPA were acquired using a water NOE mixing time of 1 s and a T2 relaxation filter of 50 ms just before data acquisition to suppress the broad signals derived from protein. The protein buffer used in the experiments contains 10 mM Tris-d11, 75 mM KCl, 0.25 mM EDTA, pH 7.5, and 10% D20. All NMR data were acquired on a Bruker Avance II 800 MHz NMR spectrometer equipped with a sensitive cryoprobe and recorded at 25°C. The ^1H chemical shifts were referenced to 2,2-dimethyl-2-silapentane-5-sulfonate (DSS). NMR spectra were processed using NMR Pipe ([Delaglio et al., 1995]) and analysed using NMR View ([Johnson and Blevins, 1994]).

RPA [3] = biological target: T2, RPA (Homo sapiens, UniProt P15927+P27694+P35244); test: WaterLOGSY NMR binding to RPA; conditions: 20-40 μM compound, 3.3 μM RPA
T2 construct: made in house
From the text: as §1, §2

RPA-ssDNA interaction = biological target: T3, RPA-ssDNA interaction (Homo sapiens, UniProt P15927+P27694+P35244); test: FRET titration of the RPA-Cy3-dT30-Cy5 complex; assay type: binding; conditions: range of tested concentrations
T3 construct: made in house
From the text: In the cell, ssDNA is typically found in complex with Replication protein A (RPA), the major eukaryotic ssDNA-binding protein essential for DNA replication, repair and recombination ([Wold, 1997]; [Oakley and Patrick, 2010]; [Chen and Wold, 2014]). The RPA-ssDNA complex is a physiologically relevant substrate for the RAD52-mediated strand annealing. […] RPA binds ssDNA with high affinity and extends the ssDNA to its contour length. In our assays such an extension manifests as a distinct FRET state of ~0.3, which is readily distinguished from a FRET state of ~0.48 of free Cy3-dT30-Cy5 ssDNA, as well as ~0.63 FRET of the stoichiometric ssDNA-RPA-RAD52 complex (see Figure 2—figure supplement 1 and ([Grimme and Spies, 2011]) for details). […] Both, however, inhibited the RAD52 binding to and wrapping of RPA-coated ssDNA with IC50 values identical to those determined without RPA (Figure 2e and Figure 3e).
In all experiments, the FRET values for each data point were corrected for the effects of the compounds on the respective substrate in the absence of RAD52.

[4] = tested on: GM01604 cells (hTERT-immortalized wild-type human fibroblasts); test: Neutral comet assay, MUS81/EME1/RAD52-dependent DSB formation; assay type: cell-based; conditions: Homo sapiens, Fibroblast; GM01604, 2 mM HU + 300 nM UCN01, 6h; read-out: IC50, decrease of mean tail moment following HU treatment
From the text: In human cells, RAD52 may perform both limited recombination-mediator function in the RAD51-dependent pathway ([Lok and Powell, 2012]; [Benson et al., 1998]; [Feng et al., 2011]) as well as additional RAD51-independent roles ([Lok and Powell, 2012]; [Murfuni et al., 2013]; [McIlwraith and West, 2008]). One of these HR independent roles of RAD52 involves stimulation of MUS81/EME1-dependent DSB formation at replication forks stalled by hydroxyurea (HU) treatment in the absence of cellular checkpoints ([Murfuni et al., 2013]). Since the most likely targets of these MUS81/EME1/RAD52-dependent DSBs are the DNA structures produced by RAD52 ([Murfuni et al., 2013]), we expected this activity to depend on the RAD52-ssDNA interaction (Figure 5a). To confirm this, we assessed DSB formation in checkpoint deficient cells using the neutral comet assay. These assays monitor MUS81/EME1/RAD52-dependent DSB formation upon induction of replication stress by HU treatment in primary fibroblasts immortalized by hTERT expression and treated with UNC01 to inhibit CHK1 kinase (Figure 5b). […] Importantly, these inhibitors recapitulate RAD52 depletion by inhibiting RAD52-MUS81-dependent DSBs at stalled replication forks (Figure 5a–b). […] It also confirms our previous supposition that the target of MUS81/EME1-mediated cleavage under these conditions are indeed the structures annealed by RAD52. […]
To induce RAD52-MUS81-dependent cleavage at arrested replication forks ([Murfuni et al., 2013]), hTERT-immortalized wild-type human fibroblasts (GM01604) were treated with 2 mM HU and 300 nM UCN01 for 6h, in the presence and absence of varying concentrations of ‘1’ or ‘6’. […] Slides were analyzed by a computerized image analysis system (Comet IV, Perceptive UK). To assess the quantity of DNA damage, computer-generated tail moment values (tail length x fraction of total DNA in the tail) were used. […] A minimum of 100 cells were analyzed for each compound concentration point.

[5] = biological target: T4, interaction between RAD52 and RPA proteins (Homo sapiens, UniProt P43351); test: Ni-NTA pull-down of the RAD52-RPA interaction; assay type: binding; conditions: 3 μM RAD52, 3 μM RPA, 3 μM compound
T4 construct: made in house

[6] = biological target: the molecule itself; test: dynamic light scattering; average hydrodynamic radius of RAD52 (15.8 uM) alone or with equimolar compound; 25 C; 50 mM Tris-HCl pH 7.5, 200 mM KCl, 1 mM DTT, 0.5 mM EDTA
RAD52;RPA = RAD52;RPA (Homo sapiens?;Homo sapiens?, UniProt P43351;P27694;P15927;P35244 1-418;1-616;1-270;1-121, |); test: FRET; 1 nM RPA-coated ssDNA titrated with RAD52; FRET about 0.63; FRET: 30 mM Tris-acetate pH 7.5, 1 mM DTT, 0.1 mg/mL BSA, 25 C; HTS: 20 mM Hepes pH 7.5, 1 mM DTT, 0.1 mg/mL BSA, 25 C; conditions: protein: recombinant;recombinant; tags: ;; chain copies: 7;1;1;1; label: Cy3 and Cy5 at the two ends
RAD52 [7] = biological target: T5, RAD52 (UniProt P43351 1-418); test: FRET; 1 nM ssDNA; stoichiometric wrapped complex at about 8 nM RAD52; FRET: 30 mM Tris-acetate pH 7.5, 1 mM DTT, 0.1 mg/mL BSA, 25 C; HTS: 20 mM Hepes pH 7.5, 1 mM DTT, 0.1 mg/mL BSA, 25 C; conditions: protein: recombinant; chain copies: 7; label: Cy3 and Cy5 at the two ends
T5 sequence: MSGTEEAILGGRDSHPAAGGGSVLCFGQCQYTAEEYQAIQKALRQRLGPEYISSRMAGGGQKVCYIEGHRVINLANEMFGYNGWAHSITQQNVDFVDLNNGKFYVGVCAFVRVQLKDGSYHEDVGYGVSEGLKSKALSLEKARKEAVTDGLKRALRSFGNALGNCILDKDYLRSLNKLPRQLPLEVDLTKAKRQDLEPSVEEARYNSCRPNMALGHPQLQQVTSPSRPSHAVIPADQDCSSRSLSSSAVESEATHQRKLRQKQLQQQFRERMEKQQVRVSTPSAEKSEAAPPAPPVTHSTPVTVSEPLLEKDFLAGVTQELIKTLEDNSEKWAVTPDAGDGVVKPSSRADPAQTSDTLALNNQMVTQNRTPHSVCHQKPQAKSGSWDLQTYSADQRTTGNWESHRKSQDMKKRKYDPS

RPA [8] = biological target: RPA (UniProt P27694;P15927;P35244 1-616;1-270;1-121); test: FRET; 1 nM RPA, 1 nM ssDNA; FRET about 0.3 versus about 0.48 for free DNA; FRET: 30 mM Tris-acetate pH 7.5, 1 mM DTT, 0.1 mg/mL BSA, 25 C; HTS: 20 mM Hepes pH 7.5, 1 mM DTT, 0.1 mg/mL BSA, 25 C; conditions: protein: recombinant; copies: 1;1;1; label: Cy3 and Cy5 at the two ends
Chain of RPA (UniProt P27694;P15927;P35244 1-616;1-270;1-121) (P27694 whole entry, chain 1 of 3): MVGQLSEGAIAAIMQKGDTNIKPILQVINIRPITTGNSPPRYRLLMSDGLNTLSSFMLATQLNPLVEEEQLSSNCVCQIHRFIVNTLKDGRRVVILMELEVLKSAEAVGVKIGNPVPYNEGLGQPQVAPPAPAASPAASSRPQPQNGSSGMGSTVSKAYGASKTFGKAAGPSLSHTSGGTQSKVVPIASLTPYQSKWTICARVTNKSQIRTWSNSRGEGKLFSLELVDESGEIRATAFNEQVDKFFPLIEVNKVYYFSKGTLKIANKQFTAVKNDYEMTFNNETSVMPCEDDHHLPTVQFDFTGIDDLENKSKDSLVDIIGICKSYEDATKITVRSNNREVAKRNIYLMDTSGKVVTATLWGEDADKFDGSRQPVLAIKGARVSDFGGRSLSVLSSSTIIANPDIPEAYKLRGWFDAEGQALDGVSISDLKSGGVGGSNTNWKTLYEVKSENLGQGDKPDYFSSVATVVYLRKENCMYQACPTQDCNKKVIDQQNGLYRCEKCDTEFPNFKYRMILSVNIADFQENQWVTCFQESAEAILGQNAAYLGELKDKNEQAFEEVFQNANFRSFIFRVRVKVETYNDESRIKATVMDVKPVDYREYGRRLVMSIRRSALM
Chain of RPA (UniProt P27694;P15927;P35244 1-616;1-270;1-121) (P15927 whole entry, chain 2 of 3): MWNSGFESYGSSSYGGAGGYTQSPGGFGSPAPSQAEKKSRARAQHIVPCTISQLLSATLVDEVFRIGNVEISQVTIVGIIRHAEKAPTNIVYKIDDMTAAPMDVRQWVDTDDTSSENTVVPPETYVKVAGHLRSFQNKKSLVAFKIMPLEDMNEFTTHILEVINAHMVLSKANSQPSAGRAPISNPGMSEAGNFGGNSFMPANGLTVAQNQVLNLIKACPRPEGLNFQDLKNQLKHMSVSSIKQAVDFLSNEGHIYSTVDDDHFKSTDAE
Chain of RPA (UniProt P27694;P15927;P35244 1-616;1-270;1-121) (P35244 whole entry, chain 3 of 3): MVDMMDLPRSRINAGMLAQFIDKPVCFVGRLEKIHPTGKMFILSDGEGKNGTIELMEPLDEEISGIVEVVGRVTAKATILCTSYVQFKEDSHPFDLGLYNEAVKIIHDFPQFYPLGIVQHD

T4 sequence (P27694 whole entry partner, one chain of several): as the sequence (P27694 whole entry, chain 1 of 3) above
T4 sequence (P15927 whole entry partner, one chain of several): as the sequence (P15927 whole entry, chain 2 of 3) above
T4 sequence (P35244 whole entry partner, one chain of several): as the sequence (P35244 whole entry, chain 3 of 3) above
T2 sequence (P27694 whole entry): as the sequence (P27694 whole entry, chain 1 of 3) above
T2 sequence (P15927 whole entry): as the sequence (P15927 whole entry, chain 2 of 3) above
T2 sequence (P35244 whole entry): as the sequence (P35244 whole entry, chain 3 of 3) above
T3 sequence (P27694 whole entry): as the sequence (P27694 whole entry, chain 1 of 3) above
T3 sequence (P15927 whole entry): as the sequence (P15927 whole entry, chain 2 of 3) above
T3 sequence (P35244 whole entry): as the sequence (P35244 whole entry, chain 3 of 3) above
Chain of RAD52;RPA (P27694 whole entry, chain 2 of 3): as the sequence (P27694 whole entry, chain 1 of 3) above
Chain of RAD52;RPA (P15927 whole entry, chain 3 of 3): as the sequence (P15927 whole entry, chain 2 of 3) above
Chain of RAD52;RPA (P35244 whole entry, chain 4 of 3): as the sequence (P35244 whole entry, chain 3 of 3) above

Molecule: NC(Cc1cc(O)c(O)cc1O)C(=O)O (racemic) [6-hydroxy-DL-dopa]
effect on RAD52 supramolecular assembly (RAD52 [1]): disrupts supramolecular assembly of the RAD52 protein

binding to RAD52 (WaterLOGSY) (RAD52 [2]): physically interact with RAD52 protein
binding to RPA (WaterLOGSY) (RPA [3]): also binds to RPA
Molecule: O=C(OC1Cc2c(O)cc(O)cc2OC1c1cc(O)c(O)c(O)c1)c1cc(O)c(O)c(O)c1 (stereo not shown) [Compound 6, Epigallocatechin-3-monogallate]
effect on the RPA-ssDNA interaction (RPA-ssDNA interaction): neither ‘1’ nor ‘6’ affected the RPA-ssDNA interaction
IC50 [4]: ~10 µM
effect on the RAD52-RPA interaction [5]: neither ‘1’ nor ‘6’ interfered with the interaction between the two proteins

B1: 6xHis-tagged human RAD52 protein (natural protein, UniProt P43351 1-418, looked up)
chain: MSGTEEAILGGRDSHPAAGGGSVLCFGQCQYTAEEYQAIQKALRQRLGPEYISSRMAGGGQKVCYIEGHRVINLANEMFGYNGWAHSITQQNVDFVDLNNGKFYVGVCAFVRVQLKDGSYHEDVGYGVSEGLKSKALSLEKARKEAVTDGLKRALRSFGNALGNCILDKDYLRSLNKLPRQLPLEVDLTKAKRQDLEPSVEEARYNSCRPNMALGHPQLQQVTSPSRPSHAVIPADQDCSSRSLSSSAVESEATHQRKLRQKQLQQQFRERMEKQQVRVSTPSAEKSEAAPPAPPVTHSTPVTVSEPLLEKDFLAGVTQELIKTLEDNSEKWAVTPDAGDGVVKPSSRADPAQTSDTLALNNQMVTQNRTPHSVCHQKPQAKSGSWDLQTYSADQRTTGNWESHRKSQDMKKRKYDPS
notes: RAD52, human DNA repair protein; the N-terminal domain in PDB 1KNO is an undecameric ring
binding result [6]: binds

Molecule: TTTTTTTTTTTTTTTTTTTTTTTTTTTTTT (ssDNA) [Cy3-dT30-Cy5]
binding result (RAD52;RPA): binds
binding result (RAD52 [7]): binds
binding result (RPA [8]): binds
